In US20050260126A1 (priority 2002, published 2005):

Tests used:
[1] = test system: abnormal prion proteins in ScN2a cells with persistent infection of scrapie; experiment: cells; assay type: cell-based, mouse; conditions: for IC50: Mus musculus, ScN2a, 96 h, read-out: Inhibitory effects on producing abnormal prion protein IC50; for Inhibitory effects on producing abnormal prion proteins (in words): ScN2a cells
ScN2a cells = conditions: for Concentration of inhibiting cell proliferation TC: mouse

C(=C\c1cncs1)/c1nc2ccccc2o1 [BF-234]
IC50 [1]: 0.04 µM | Concentration of inhibiting cell proliferation TC (ScN2a cells): >10 µM

Cc1cccc(/C=C/c2nc3cc(C)ccc3s2)c1 [Compound N-439, 2-[2-(3-methylphenyl)-ethenyl]-5-methyl-benzothiazole]
IC50 [1]: 0.01 µM | Concentration of inhibiting cell proliferation TC (ScN2a cells): 100 µM

Nc1ccc(C(=O)Nc2ccc3nc(-c4cc(Cl)c(NC(=O)c5ccc(N)cc5)c(Cl)c4)[nH]c3c2Cl)cc1 [Compound N-233, 4-[6-(N′-(4-amino-benzoyl)amino)-7-chlorobenzimidazol-2-yl]-N-(4-aminobenzoyl)-2,6-dichloroaniline]
IC50 [1]: 0.1 µM | Concentration of inhibiting cell proliferation TC (ScN2a cells): 10 µM

CN(C)c1ccc(/C=C/c2nc3ccc4ccccc4c3s2)cc1 [Compound N-283, 4-[2-(naphth[4,5-c]-thiazol-2-yl)ethenyl]-N,N-dimethylbenzenamine]
IC50 [1]: 0.5 µM | Concentration of inhibiting cell proliferation TC (ScN2a cells): 50 µM

Cc1ccc2nc(-c3ccc(NC(=O)c4ccc(Cl)cc4)cc3)sc2c1 [HT-041, 4-(6-methylbenzothiazol-2-yl)-N-(4-chloro-benzoyl)aniline]
IC50 [1]: 0.01 µM | Concentration of inhibiting cell proliferation TC (ScN2a cells): >10 µM

Clc1ccc(/C=C/c2nc3ccccc3s2)c(Cl)c1 [Compound N-452, 2-[2-(2,4-dichloro-phenyl)ethenyl]-benzothiazole]
IC50 [1]: 0.1 µM | Concentration of inhibiting cell proliferation TC (ScN2a cells): 100 µM

Nc1ccc(C(=O)Nc2ccc(-c3nc4cc(N)ccc4o3)cc2)cc1 [Compound N-220, 4-(5-aminobenzoxazol-2-yl)-N-(4-amino-benzoyl)aniline]
IC50 [1]: 0.001 µM | Inhibitory effects on producing abnormal prion proteins (in words) [1]: highly inhibitory effects | Concentration of inhibiting cell proliferation TC (ScN2a cells): 10 µM

Nc1ccc(-c2nc3ccc(N)c(Cl)c3[nH]2)cc1 [Compound N-234, 2-(4-aminophenyl)-7-chloro-6-amino-benzimidazole]
IC50 [1]: 0.1 µM | Concentration of inhibiting cell proliferation TC (ScN2a cells): >10 µM

Nc1ccc(C(=O)Nc2ccc(-c3nc4cc(Cl)c(NC(=O)c5ccc(N)cc5)cc4[nH]3)cc2)cc1 [Compound N-246, 4-[6-(N′-(4-amino-benzoyl)amino)-5-chlorobenzimidazol-2-yl]-N-(4-aminobenzoyl)aniline]
IC50 [1]: 0.001 µM | Inhibitory effects on producing abnormal prion proteins (in words) [1]: highly inhibitory effects | Concentration of inhibiting cell proliferation TC (ScN2a cells): 10 µM

Cc1ccn2c(Br)c(-c3ccccc3)nc2c1 [Compound N-467, 2-phenyl-3-bromo-7-methylimidazo[1,2-a]pyridine]
IC50 [1]: 1 µM | Concentration of inhibiting cell proliferation TC (ScN2a cells): 100 µM

Ic1ccc2nc(-c3ccccc3)cn2c1 [Compound N-469, 2-phenyl-6-iodo-imidazo[1,2-a]pyridine]
IC50 [1]: 0.1 µM | Concentration of inhibiting cell proliferation TC (ScN2a cells): ≧100 μM

Cc1ccc2nc(-c3ccc(NC(=O)c4ccc(Cl)cc4Cl)cc3)sc2c1 [HT-040, 4-(6-methylbenzothiazol-2-yl)-N-(2,4-dichlorobenzoyl)aniline]
IC50 [1]: 0.01 µM | Concentration of inhibiting cell proliferation TC (ScN2a cells): >10 µM

Cc1ccn2cc(-c3ccccc3)nc2c1 [Compound N-463, 2-phenyl-7-methyl-imidazo[1,2-a]pyridine]
IC50 [1]: 0.1 µM | Concentration of inhibiting cell proliferation TC (ScN2a cells): 100 µM

Clc1ccc2nc(-c3cc(-c4ccccc4)no3)cn2c1 [Compound N-465, 2-(3-phenylisoxazol-5-yl)-6-chloroimidazo [1,2-a]pyridine]
IC50 [1]: 0.01 µM | Concentration of inhibiting cell proliferation TC (ScN2a cells): 100 µM

Cc1ccc2nc(-c3sc(-c4ccccc4)nc3C)cn2c1 [Compound N-473, 2-(2-phenyl-4-methylthiazol-5-yl)-6-methyl-imidazo[1,2-a]pyridine]
IC50 [1]: 1 µM | Concentration of inhibiting cell proliferation TC (ScN2a cells): 100 µM

Nc1ccc(C(=O)Nc2ccc(-c3nc4cc(N)ccc4[nH]3)cc2)cc1 [Compound N-243, 4-(5-aminobenzimidazol-2-yl)-N-(4-amino-benzoyl)aniline]
IC50 [1]: 0.001 µM | Inhibitory effects on producing abnormal prion proteins (in words) [1]: highly inhibitory effects | Concentration of inhibiting cell proliferation TC (ScN2a cells): >10 µM

C/C(=C\c1ccc(N)cc1)c1nc2ccccc2[nH]1 [Compound N-442, 4-[2-(2-benzimidazolyl)-2-methylethenyl]benzenamine]
IC50 [1]: 0.1 µM | Concentration of inhibiting cell proliferation TC (ScN2a cells): 100 µM

Nc1ccc(-c2nc3cc(N)ccc3s2)cc1 [Compound N-231, 2-(4-aminophenyl)-5-aminobenzothiazole]
IC50 [1]: 0.01 µM | Concentration of inhibiting cell proliferation TC (ScN2a cells): 10 µM

Nc1ccccc1/C=C/c1nc2ccccc2[nH]1 [Compound N-402, 2-[2-(2-aminophenyl)ethenyl]benzimidazole]
IC50 [1]: 0.05 µM | Concentration of inhibiting cell proliferation TC (ScN2a cells): 50 µM

CN(C)c1ccc(/C=C/c2nc3cc([N+](=O)[O-])ccc3o2)cc1 [BF-135, 2-(4-dimethylamino) styryl-5-nitrobenzoxazole]
IC50 [1]: 0.001 µM | Inhibitory effects on producing abnormal prion proteins (in words) [1]: highly inhibitory effects | TC and safety concentration margin (in words) (ScN2a cells): higher TCs, therefore higher safety concentration margins | Concentration of inhibiting cell proliferation TC (ScN2a cells): 100 µM

Nc1cccc(-c2cn3cc(Cl)ccc3n2)c1 [Compound N-475, 2-(3-aminophenyl)-6-chloroimidazo[1,2-a]pyridine]
IC50 [1]: 0.1 µM | Concentration of inhibiting cell proliferation TC (ScN2a cells): 100 µM

CN(C)c1ccc2cc(-c3nc4cc(F)ccc4o3)cnc2c1 [BF-161, 5-fluoro-2-(7-dimethyl-aminoquinolin-3-yl)-benzoxazole]
IC50 [1]: 0.01 µM | Concentration of inhibiting cell proliferation TC (ScN2a cells): 100 µM

Nc1ccc(-c2nc3ccc(N)cc3s2)cc1 [Compound N-224, 2-(4-aminophenyl)-6-aminobenzothiazole]
IC50 [1]: 0.001 µM | Inhibitory effects on producing abnormal prion proteins (in words) [1]: highly inhibitory effects | Concentration of inhibiting cell proliferation TC (ScN2a cells): >10 µM

Nc1ccc(-c2nc3ccc(N)cc3o2)cc1 [Compound N-226, 2-(4-aminophenyl)-6-aminobenzoxazole]
IC50 [1]: 0.1 µM | Concentration of inhibiting cell proliferation TC (ScN2a cells): >10 µM

CN(C)c1ncc(-c2ccc3ccccc3n2)o1 [BF-221, 2-(2-dimethylamino-oxazol-5-yl)quinoline]
IC50 [1]: 0.08 µM | Concentration of inhibiting cell proliferation TC (ScN2a cells): >10 µM

Nc1ccc(-c2cn3ccccc3n2)cc1 [Compound N-461, 2-(4-aminophenyl)-imidazo[1,2-a]pyridine]
IC50 [1]: 0.1 µM | Concentration of inhibiting cell proliferation TC (ScN2a cells): >10 µM

Nc1ccc(-c2nc3cc(Oc4ccc(Oc5ccc6[nH]c(-c7ccc(N)cc7)nc6c5)cc4)ccc3[nH]2)cc1 [Compound N-244]
IC50 [1]: 0.01 µM | Concentration of inhibiting cell proliferation TC (ScN2a cells): >10 µM

Cc1cc(N)cc2nc(-c3ccc(N)c(Cl)c3)[nH]c12 [Compound N-240, 2-(4-amino-3-chloro-phenyl)-5-amino-7-methylbenzimidazole]
IC50 [1]: 0.1 µM | Concentration of inhibiting cell proliferation TC (ScN2a cells): 10 µM

Clc1ccc2nc(-c3ccccc3)cn2c1 [Compound N-464, 2-phenyl-6-chloro-imidazo[1,2-a]pyridine]
IC50 [1]: 0.1 µM | Concentration of inhibiting cell proliferation TC (ScN2a cells): 100 µM

Clc1ccc2nc(-c3ccc(Br)s3)cn2c1 [Compound N-472, 2-(5-bromo-2-thienyl)-6-chloroimidazo[1,2-a]pyridine]
IC50 [1]: 0.01 µM | Concentration of inhibiting cell proliferation TC (ScN2a cells): 100 µM

Nc1ccc(-c2nc3ccc(N)cc3[nH]2)cc1 [Compound N-245, 2-(4-aminophenyl)-5-aminobenzimidazole]
IC50 [1]: 0.1 µM | Concentration of inhibiting cell proliferation TC (ScN2a cells): 10 µM

Nc1ccc(-c2nc3ccc(O)cc3s2)cc1 [BF-160, 2-(4-aminophenyl)-6-hydroxybenzothiazole]
IC50 [1]: 0.01 µM | Concentration of inhibiting cell proliferation TC (ScN2a cells): 10 µM

Nc1ccc(-c2nc3cc(N)ccc3s2)c(O)c1 [Compound N-232, 2-(4-amino-2-hydroxy-phenyl)-5-amino-benzothiazole]
IC50 [1]: 0.001 µM | Inhibitory effects on producing abnormal prion proteins (in words) [1]: highly inhibitory effects | Concentration of inhibiting cell proliferation TC (ScN2a cells): 10 µM

Nc1ccc(-c2nc3cc(Cc4ccc5oc(-c6ccc(N)cc6)nc5c4)ccc3o2)cc1 [Compound N-221]
IC50 [1]: 0.001 µM | Inhibitory effects on producing abnormal prion proteins (in words) [1]: highly inhibitory effects | Concentration of inhibiting cell proliferation TC (ScN2a cells): >10 µM

Nc1ccc(-c2nc3cc(Oc4ccc5[nH]c(-c6ccc(N)cc6)nc5c4)ccc3[nH]2)cc1 [Compound N-241]
IC50 [1]: 0.01 µM | Concentration of inhibiting cell proliferation TC (ScN2a cells): 10 µM

Cc1ccc2nc(-c3ccc(NC(=O)Nc4cccc(Cl)c4)cc3)sc2c1 [HT-043, 4-(6-methylbenzothiazol-2-yl)-N-(3-chlorophenyl-aminocarbonyl)aniline]
IC50 [1]: 0.1 µM | Concentration of inhibiting cell proliferation TC (ScN2a cells): >10 µM

COc1ccc(/C=C/c2nc3ccccc3s2)cc1 [Compound N-455, 2-[2-(4-methoxyphenyl)-ethenyl]benzothiazole]
IC50 [1]: 0.01 µM | Concentration of inhibiting cell proliferation TC (ScN2a cells): 100 µM

Nc1ccc(-c2nc3cc(N)ccc3o2)cc1 [Compound N-225, 2-(4-aminophenyl)-5-aminobenzoxazole]
IC50 [1]: 0.1 µM | Concentration of inhibiting cell proliferation TC (ScN2a cells): >10 µM

CN(C)c1ccc(/C=C/c2nccn2C)cc1 [BF-138, 2-[2-(4-dimethylamino-phenyl)ethenyl]-1-methylimidazole]
IC50 [1]: 0.1 µM | Concentration of inhibiting cell proliferation TC (ScN2a cells): 100 µM

Cc1cc2[nH]c(-c3ccc(N)cc3)nc2cc1N [Compound N-242, 2-(4-aminophenyl)-5-amino-6-methyl-benzimidazole]
IC50 [1]: 0.1 µM | Concentration of inhibiting cell proliferation TC (ScN2a cells): 10 µM

Cc1ccc2nc(-c3ccc(NC(=O)c4cccs4)cc3)sc2c1 [HT-042, 4-(6-methylbenzothiazol-2-yl)-N-(thio-phen-2-carbonyl)aniline]
IC50 [1]: 0.01 µM | Concentration of inhibiting cell proliferation TC (ScN2a cells): >100 µM

CCN(CC)c1ccc2cc(-c3nc4ccccc4[nH]3)c(=O)oc2c1 [SA-272, 2-(7-diethylamino-coumarin-3-yl)-benzimidazole]
IC50 [1]: 1 µM | Concentration of inhibiting cell proliferation TC (ScN2a cells): 100 µM
